{"source": "patent US20200054633A1", "about": "(priority 2017, published 2020)", "key": {"[1]": {"assay": "Clinical study: treatment-emergent laboratory toxicities, ECG, vital signs", "format": "in vivo, human", "details": "for Worst treatment-emergent toxicity: Glucose hyperglycemia Grade 3 / Worst treatment-emergent toxicity: ALT increase by factor Grade 3 / Worst treatment-emergent toxicity: ALT increase by factor Grade 4 / Worst treatment-emergent toxicity: AST increase by factor Grade 4 / Worst treatment-emergent toxicity: CPK Grade 3 / Worst treatment-emergent toxicity: CPK Grade 4 / Worst treatment-emergent toxicity: Cholesterol Grade 3 / Worst treatment-emergent toxicity: Hemoglobin - change from baseline Grade 3 / Worst treatment-emergent toxicity: Hyperkalemia Grade 3 / Worst treatment-emergent toxicity: Hyperkalemia Grade 4 / Worst treatment-emergent toxicity: Hypernatremia Grade 3 / Worst treatment-emergent toxicity: Hypernatremia Grade 4 / Worst treatment-emergent toxicity: Hypocalcemia Grade 4 / Worst treatment-emergent toxicity: Hypoglycemia Grade 3 / Worst treatment-emergent toxicity: Hypokalemia Grade 3 / Worst treatment-emergent toxicity: Hypokalemia Grade 4 / Worst treatment-emergent toxicity: Hypomagnesemia Grade 3 / Worst treatment-emergent toxicity: Hyponatremia Grade 3 / Worst treatment-emergent toxicity: Hypophosphatemia Grade 3 / Worst treatment-emergent toxicity: Neutrophils decrease Grade 3 / Worst treatment-emergent toxicity: Neutrophils decrease Grade 4 / Worst treatment-emergent toxicity: Urine RBC increased Grade 3 / Worst treatment-emergent toxicity: Urine WBC increased Grade 3 / Worst treatment-emergent toxicity: Urine glucose increased Grade 3 / Worst treatment-emergent toxicity: Urine protein increased Grade 3: OST placebo; for Worst treatment-emergent toxicity: ALT increase by factor Grade 3 / Worst treatment-emergent toxicity: ALT increase by factor Grade 4 / Worst treatment-emergent toxicity: AST increase by factor Grade 4 / Worst treatment-emergent toxicity: CPK Grade 3 / Worst treatment-emergent toxicity: CPK Grade 4 / Worst treatment-emergent toxicity: Cholesterol Grade 3 / Worst treatment-emergent toxicity: Hemoglobin - change from baseline Grade 3 / Worst treatment-emergent toxicity: Hyperkalemia Grade 3 / Worst treatment-emergent toxicity: Hyperkalemia Grade 4 / Worst treatment-emergent toxicity: Hypernatremia Grade 3 / Worst treatment-emergent toxicity: Hypernatremia Grade 4 / Worst treatment-emergent toxicity: Hypocalcemia Grade 4 / Worst treatment-emergent toxicity: Hypoglycemia Grade 3 / Worst treatment-emergent toxicity: Hypokalemia Grade 3 / Worst treatment-emergent toxicity: Hypokalemia Grade 4 / Worst treatment-emergent toxicity: Hypomagnesemia Grade 3 / Worst treatment-emergent toxicity: Hyponatremia Grade 3 / Worst treatment-emergent toxicity: Hypophosphatemia Grade 3 / Worst treatment-emergent toxicity: Neutrophils decrease Grade 3 / Worst treatment-emergent toxicity: Neutrophils decrease Grade 4 / Worst treatment-emergent toxicity: Urine RBC increased Grade 3 / Worst treatment-emergent toxicity: Urine WBC increased Grade 3 / Worst treatment-emergent toxicity: Urine glucose increased Grade 3 / Worst treatment-emergent toxicity: Urine protein increased Grade 3: Safety Set 74"}, "[2]": {"assay": "Clinical study: study drug discontinuation and reasons", "format": "in vivo, human", "description": "Given the sizable difference between the FAS and the Safety Set, summary tables are provided for both analysis sets. Table 4 and Table 5 present a summary of subjects who completed or discontinued study drug and/or the study for the FAS and the Safety Set, respectively."}, "[3]": {"tested_on": "acute uncomplicated seasonal influenza A", "assay": "Clinical study: time to resolution of the 7 primary influenza symptoms (Flu-iiQ)", "details": "for Median (95% CI): untitled table, presumably time to symptom resolution", "excerpt": "This study followed a randomized, double-blind, placebo-controlled, parallel-group, multicenter design.\nKey secondary efficacy variable: Time to resolution of influenza symptoms after initiation of study drug. Resolution of influenza symptoms was defined as the first Flu iiQ™ recording of a successive series of 3 recordings (over 4 scheduled successive analysis time points, 1 missing time point is allowed) in which all symptom scores for each of the 3 assessments were at most mild for all 7 primary influenza symptoms (cough, sore throat, headache, nasal stuffiness, feverishness or chills, muscle or joint pain, and fatigue)."}, "[4]": {"details": "Cmpd (1) 300 mg + OST placebo, Full Analysis Set"}, "[5]": {"details": "Cmpd (1) 300 mg + OST placebo, Safety Set"}, "[6]": {"details": "Cmpd (1) 600 mg + OST placebo, Full Analysis Set"}, "[7]": {"details": "Cmpd (1) 600 mg + OST placebo, Safety Set"}}}
{"compound": "O=C(O)[C@H]1C2CCC(CC2)[C@@H]1Nc1nc(-c2c[nH]c3ncc(F)cc23)ncc1F", "note": "[Compound (1), Pimodivir]", "values": [{"measurement": "Worst treatment-emergent toxicity: Glucose hyperglycemia Grade 3", "setting": "[1]; 300 mg, N 73", "value": "1 (1.4%)"}, {"measurement": "Worst treatment-emergent toxicity: ALT increase by factor Grade 3", "setting": "[1]; 300 mg", "value": 0}, {"measurement": "Worst treatment-emergent toxicity: ALT increase by factor Grade 4", "setting": "[1]; 300 mg", "value": 0}, {"measurement": "Worst treatment-emergent toxicity: AST increase by factor Grade 4", "setting": "[1]; 300 mg", "value": 0}, {"measurement": "Worst treatment-emergent toxicity: CPK Grade 3", "setting": "[1]; 300 mg", "value": "1 (1.4%)"}, {"measurement": "Worst treatment-emergent toxicity: CPK Grade 4", "setting": "[1]; 300 mg", "value": 0}, {"measurement": "Worst treatment-emergent toxicity: Cholesterol Grade 3", "setting": "[1]; 300 mg", "value": 0}, {"measurement": "Worst treatment-emergent toxicity: Hemoglobin - change from baseline Grade 3", "setting": "[1]; 300 mg", "value": "5 (7.1%)"}, {"measurement": "Worst treatment-emergent toxicity: Hyperkalemia Grade 3", "setting": "[1]; 300 mg", "value": "1 (1.4%)"}, {"measurement": "Worst treatment-emergent toxicity: Hyperkalemia Grade 4", "setting": "[1]; 300 mg", "value": 0}, {"measurement": "Worst treatment-emergent toxicity: Hypernatremia Grade 3", "setting": "[1]; 300 mg", "value": 0}, {"measurement": "Worst treatment-emergent toxicity: Hypernatremia Grade 4", "setting": "[1]; 300 mg", "value": 0}, {"measurement": "Worst treatment-emergent toxicity: Hypocalcemia Grade 4", "setting": "[1]; 300 mg", "value": "1 (1.4%)"}, {"measurement": "Worst treatment-emergent toxicity: Hypoglycemia Grade 3", "setting": "[1]; 300 mg", "value": 0}, {"measurement": "Worst treatment-emergent toxicity: Hypokalemia Grade 3", "setting": "[1]; 300 mg", "value": 0}, {"measurement": "Worst treatment-emergent toxicity: Hypokalemia Grade 4", "setting": "[1]; 300 mg", "value": 0}, {"measurement": "Worst treatment-emergent toxicity: Hypomagnesemia Grade 3", "setting": "[1]; 300 mg", "value": "1 (1.4%)"}, {"measurement": "Worst treatment-emergent toxicity: Hyponatremia Grade 3", "setting": "[1]; 300 mg", "value": 0}, {"measurement": "Worst treatment-emergent toxicity: Hypophosphatemia Grade 3", "setting": "[1]; 300 mg", "value": "2 (2.7%)"}, {"measurement": "Worst treatment-emergent toxicity: Neutrophils decrease Grade 3", "setting": "[1]; 300 mg", "value": "1 (1.4%)"}, {"measurement": "Worst treatment-emergent toxicity: Neutrophils decrease Grade 4", "setting": "[1]; 300 mg", "value": 0}, {"measurement": "Worst treatment-emergent toxicity: Urine RBC increased Grade 3", "setting": "[1]; 300 mg", "value": "3 (9.4%)"}, {"measurement": "Worst treatment-emergent toxicity: Urine WBC increased Grade 3", "setting": "[1]; 300 mg", "value": 0}, {"measurement": "Worst treatment-emergent toxicity: Urine glucose increased Grade 3", "setting": "[1]; 300 mg", "value": "1 (1.4%)"}, {"measurement": "Worst treatment-emergent toxicity: Urine protein increased Grade 3", "setting": "[1]; 300 mg", "value": 0}, {"measurement": "Worst treatment-emergent toxicity: Glucose hyperglycemia Grade 3", "setting": "[1]; 600 mg, N 70", "value": 0}, {"measurement": "Worst treatment-emergent toxicity: ALT increase by factor Grade 3", "setting": "[1]; 600 mg", "value": 1}, {"measurement": "Worst treatment-emergent toxicity: ALT increase by factor Grade 4", "setting": "[1]; 600 mg", "value": 1}, {"measurement": "Worst treatment-emergent toxicity: AST increase by factor Grade 4", "setting": "[1]; 600 mg", "value": 1}, {"measurement": "Worst treatment-emergent toxicity: CPK Grade 3", "setting": "[1]; 600 mg", "value": 2}, {"measurement": "Worst treatment-emergent toxicity: CPK Grade 4", "setting": "[1]; 600 mg", "value": 1}, {"measurement": "Worst treatment-emergent toxicity: Cholesterol Grade 3", "setting": "[1]; 600 mg", "value": 4}, {"measurement": "Worst treatment-emergent toxicity: Hemoglobin - change from baseline Grade 3", "setting": "[1]; 600 mg", "value": 3}, {"measurement": "Worst treatment-emergent toxicity: Hyperkalemia Grade 3", "setting": "[1]; 600 mg", "value": 1}, {"measurement": "Worst treatment-emergent toxicity: Hyperkalemia Grade 4", "setting": "[1]; 600 mg", "value": 2}, {"measurement": "Worst treatment-emergent toxicity: Hypernatremia Grade 3", "setting": "[1]; 600 mg", "value": 0}, {"measurement": "Worst treatment-emergent toxicity: Hypernatremia Grade 4", "setting": "[1]; 600 mg", "value": 0}, {"measurement": "Worst treatment-emergent toxicity: Hypocalcemia Grade 4", "setting": "[1]; 600 mg", "value": 0}, {"measurement": "Worst treatment-emergent toxicity: Hypoglycemia Grade 3", "setting": "[1]; 600 mg", "value": 2}, {"measurement": "Worst treatment-emergent toxicity: Hypokalemia Grade 3", "setting": "[1]; 600 mg", "value": 1}, {"measurement": "Worst treatment-emergent toxicity: Hypokalemia Grade 4", "setting": "[1]; 600 mg", "value": 1}, {"measurement": "Worst treatment-emergent toxicity: Hypomagnesemia Grade 3", "setting": "[1]; 600 mg", "value": 0}, {"measurement": "Worst treatment-emergent toxicity: Hyponatremia Grade 3", "setting": "[1]; 600 mg", "value": 0}, {"measurement": "Worst treatment-emergent toxicity: Hypophosphatemia Grade 3", "setting": "[1]; 600 mg", "value": 0}, {"measurement": "Worst treatment-emergent toxicity: Neutrophils decrease Grade 3", "setting": "[1]; 600 mg", "value": 4}, {"measurement": "Worst treatment-emergent toxicity: Neutrophils decrease Grade 4", "setting": "[1]; 600 mg", "value": 0}, {"measurement": "Worst treatment-emergent toxicity: Urine RBC increased Grade 3", "setting": "[1]; 600 mg", "value": 5}, {"measurement": "Worst treatment-emergent toxicity: Urine WBC increased Grade 3", "setting": "[1]; 600 mg", "value": 2}, {"measurement": "Worst treatment-emergent toxicity: Urine glucose increased Grade 3", "setting": "[1]; 600 mg", "value": 0}, {"measurement": "Worst treatment-emergent toxicity: Urine protein increased Grade 3", "setting": "[1]; 600 mg", "value": 2}, {"measurement": "laboratory values, electrocardiograms, and vital signs", "setting": "[1]; clinical study", "value": "No safety concerns were noted"}, {"measurement": "Drug termination: Discontinued", "setting": "[2]; [4]", "value": 20.7, "unit": "%"}, {"measurement": "Drug termination: Discontinued, Adverse event", "setting": "[2]; [4]", "value": "(10.3%)"}, {"measurement": "Drug termination: Discontinued", "setting": "[2]; Cmpd (1) 300 mg + OST placebo, Full Analysis Set, listed as Cmpd (1)", "value": "(20.7%)"}, {"measurement": "Drug termination: Discontinued", "setting": "[2]; [5]", "value": "14 (18.9%)"}, {"measurement": "Drug termination: Discontinued, Adverse event", "setting": "[2]; [5]", "value": "7 (9.5%)"}, {"measurement": "Drug termination: Discontinued", "setting": "[2]; [6]", "value": 14.0, "unit": "%"}, {"measurement": "Drug termination: Discontinued, Adverse event", "setting": "[2]; [6]", "value": "(5.3%)"}, {"measurement": "Drug termination: Discontinued", "setting": "[2]; Cmpd (1) 600 mg + OST placebo, Full Analysis Set, listed as Cmpd (1)", "value": "(14.0%)"}, {"measurement": "Drug termination: Discontinued", "setting": "[2]; [7]", "value": "12 (16.2%)"}, {"measurement": "Drug termination: Discontinued, Adverse event", "setting": "[2]; [7]", "value": "3 (4.1%)"}, {"measurement": "Median (95% CI)", "setting": "[3]; Cmpd (1) 300 mg", "value": "99.0 (71.5;"}, {"measurement": "Median (95% CI)", "setting": "[3]; Cmpd (1) 600 mg", "value": "85.7 (55.3;"}, {"measurement": "increase in time to resolution of the 7 primary influenza symptoms versus placebo", "setting": "[3]; Compound (1) 300 mg bid, accelerated failure time model", "value": 7, "unit": "%"}]}
